Experimental data published in patent US11738065B2, “Polypeptides and analogues thereof for use in the treatment of diabetes and bone disorders” (UNIVERSITY OF ULSTER, priority 2015, dated 2023).

Tests used:
DPP-4 = biological target: T1, DPP-4 (Sus scrofa, UniProt P22411); experiment: DPP-4 degradation / in vitro DPP-4 half-life; assay type: in vitro ADME, porcine; conditions: pig; 37° C., 50 mmol/L TEA-HCl pH 7.8, 5 mU purified porcine DPP-4, 0-12 h
T1 construct: purchased Sigma-Aldrich, Dorset, UK
Method: (§1) For calculation of experimental molecular masses, peptide samples (1 μg) were mixed with α-cyano-4-hydroxycinnamic acid (1 μg) and applied to a Voyager-DE BioSpectrometry Workstation and mass-to-charge (m/z) ratio verses peak intensity recorded by MALDI-TOF mass spectrometry. […] Degradation profiles were obtained using rp-HPLC analysis and HPLC peak area data used to calculate percentage intact peptide remaining at each time point.
(§2) Briefly, polypeptides (20 μg) were incubated with 5 μl of purified DPP-4 (5 mU, Sigma-Aldrich, Dorset, UK) in 50 mM TEA-HCl (pH 7.8; final volume 450 μl) at 37° C. for 0, 1, 4 and 12 hours. Enzymatic reactions were terminated by the addition of 50 μl TFA/H2O (10% v/v, Sigma-Aldrich, Dorset, UK). Reaction products were then separated by HPLC and analysed using MALDI-TOF.

purified porcine DPP-4 = biological target: T2, purified porcine DPP-4 (Sus scrofa, UniProt P22411); experiment: DPP-4 degradation / in vitro DPP-4 half-life; assay type: in vitro ADME; conditions: incubated in the presence of DPP-4 for up to 12 hs
T2 construct: purchased Sigma-Aldrich, Dorset, UK
Method: as §1, §2

BRIN-BD11 cells = experiment: In vitro insulin secretion from BRIN-BD11 cells; assay type: cell-based
Method: BRIN-BD11 cells were used to assess the insulin releasing activity of polypeptides as described by […] et al., 1996 (Diabetes. 1996 August; 45(8):1132-40). Cells were cultured in RPMI-1640 growth media supplemented with 10% (v/v) foetal bovine serum (FBS) and 1% (v/v) antibiotics (penicillin (100 U/ml), streptomycin ([…])), in 75 cm2 sterile tissue culture flasks (Greiner bio-one, UK) maintained at 37° C. and 5% CO2 in a LEEC incubator (Laboratory technical engineering, Nottingham, UK). BRIN-BD11 cells were then seeded at a density of 150,000 cells/well in 24-well plates (Nunc, Roskilde, Denmark) and allowed to attach overnight at 37° C.

lean control mice = experiment: Acute and persistent glucose lowering and insulin releasing effects in lean control mice; assay type: in vivo
Method: All animal experiments were carried out in accordance with the UK Animals (Scientific Procedures) Act 1986. For food intake studies, fasted (18 h) mice were given intraperitoneal (i.p) injections of polypeptides at a dose of 25, 100 or 250 nmol/kg bw. Mice were then allowed free access to normal chow for 180 mins and cumulative food intake measured. […] Blood samples were collected from the cut tip on the tail vein of conscious mice into chilled fluoride/heparin glucose micro-centrifuge tubes (Sarstedt, Numbrecht, Germany) at the time points indicated in the Drawings. Blood glucose was measured directly using a hand-held Ascencia Contour blood glucose meter (Bayer Healthcare, Newbury, Berkshire, UK).

high fat fed mice = experiment: Pancreatic insulin content and islet histology after 21 days treatment; assay type: in vivo
Method: On day 21, a non-fasted 24 h glucose profile was conducted. […] HOMA-IR was determined using the equation HOMA-IR=fasting glucose (mmol/l)×fasting insulin (mU/l)/22.5. […] Terminal analysis included measurement of total body fat and lean mass by DEXA scanning (Piximus Densitometer, Inside Outside Sales, Madison Wis., USA) and extraction of pancreatic tissue for analysis as detailed below. […] Briefly, pancreatic tissues were fixed in 4% parafolmaldehyde at 4° C. for 48 h. Pancreata were then embedded in paraffin wax and processed using an automated tissue processor (Leica TP1020, Leica Microsystems, Nussloch, Germany). Immunohistochemistry was performed as described by Vasu et al., 2014 (PLoS One. 2014 Jun. 26; 9(6):e101005). […] Abcam, ab6995) or guinea-pig anti-glucagon antibody (PCA2/4, 1:400; raised in-house). […] The slides were viewed under a FITC (488 nm) or TRITC filter (594 nm) using a fluorescent microscope (Olympus system microscope, model BX51) and photographed using a DP70 camera adapter system. Islet parameters were analysed using Cell^F image analysis software (Olympus Soft Imaging Solutions, GmbH). Blood samples were collected from the cut tip on the tail vein of conscious mice into chilled fluoride/heparin glucose micro-centrifuge tubes (Sarstedt, Numbrecht, Germany) at the time points indicated in the Drawings. Blood glucose was measured directly using a hand-held Ascencia Contour blood glucose meter (Bayer Healthcare, Newbury, Berkshire, UK).

[1] = 25 nmol/kg 4 h before glucose 18 mmol/kg, vs saline

T1 sequence (P22411 whole entry): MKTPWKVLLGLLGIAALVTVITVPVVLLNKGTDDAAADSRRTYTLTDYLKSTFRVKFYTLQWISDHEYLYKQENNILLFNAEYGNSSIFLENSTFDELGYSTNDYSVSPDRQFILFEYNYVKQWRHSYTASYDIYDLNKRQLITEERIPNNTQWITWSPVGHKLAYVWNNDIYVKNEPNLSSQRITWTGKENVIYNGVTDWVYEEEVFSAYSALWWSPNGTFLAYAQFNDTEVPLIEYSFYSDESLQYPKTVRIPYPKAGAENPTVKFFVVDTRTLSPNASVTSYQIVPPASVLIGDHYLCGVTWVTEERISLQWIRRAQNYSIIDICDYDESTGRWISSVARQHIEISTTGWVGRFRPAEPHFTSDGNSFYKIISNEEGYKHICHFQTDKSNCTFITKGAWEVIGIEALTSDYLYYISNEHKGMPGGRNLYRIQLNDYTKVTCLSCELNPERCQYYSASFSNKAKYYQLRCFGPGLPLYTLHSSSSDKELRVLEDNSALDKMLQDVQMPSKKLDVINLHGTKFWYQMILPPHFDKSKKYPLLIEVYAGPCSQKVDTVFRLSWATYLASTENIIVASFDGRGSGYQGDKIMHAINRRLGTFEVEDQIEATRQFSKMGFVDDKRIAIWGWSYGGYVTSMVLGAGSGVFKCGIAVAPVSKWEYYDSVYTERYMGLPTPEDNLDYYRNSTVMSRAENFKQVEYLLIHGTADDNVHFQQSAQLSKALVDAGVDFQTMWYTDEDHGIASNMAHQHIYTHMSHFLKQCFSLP
T2 sequence (P22411 whole entry): as above

SMILES: CC[C@H](C)[C@H](NC(=O)[C@H](CO)NC(=O)[C@H](Cc1ccc(O)cc1)NC(=O)[C@H](CC(=O)O)NC(=O)[C@H](CO)NC(=O)[C@@H](NC(=O)[C@H](Cc1ccccc1)NC(=O)[C@@H](NC(=O)CNC(=O)[C@H](CCC(=O)O)NC(=O)[C@@H](C)NC(=O)[C@@H](N)Cc1ccc(O)cc1)[C@@H](C)O)[C@@H](C)CC)C(=O)N[C@@H](C)C(=O)N[C@@H](CCSC)C(=O)N[C@@H](CC(=O)O)C(=O)N[C@@H](CCCCN)C(=O)N[C@H](C(=O)N[C@@H](Cc1c[nH]cn1)C(=O)N[C@@H](CCC(N)=O)C(=O)N[C@@H](CCC(N)=O)C(=O)N[C@@H](CC(=O)O)C(=O)N[C@@H](Cc1ccccc1)C(=O)N[C@H](C(=O)N[C@@H](CC(N)=O)C(=O)N[C@@H](Cc1c[nH]c2ccccc12)C(=O)N[C@@H](CC(C)C)C(=O)N[C@@H](CC(C)C)C(=O)N[C@@H](C)C(=O)N[C@@H](CCC(N)=O)C(=O)N[C@@H](CCCCN)C(=O)NCC(=O)N[C@@H](CCCCN)C(=O)N[C@@H](CCCCN)C(=O)N[C@@H](CC(N)=O)C(=O)N[C@@H](CC(=O)O)C(=O)N[C@@H](Cc1c[nH]c2ccccc12)C(=O)N[C@@H](CCCCN)C(=O)N[C@@H](Cc1c[nH]cn1)C(=O)N[C@@H](CC(N)=O)C(=O)N[C@H](C(=O)N[C@H](C(=O)N[C@@H](CCC(N)=O)C(=O)O)[C@@H](C)O)[C@@H](C)CC)C(C)C)[C@@H](C)CC [(DAla2)GIP, TYR-(d)ALA-GLU-GLY-THR-PHE-ILE-SER-ASP-TYR-SER-ILE-ALA-MET-ASP-LYS-ILE-HIS-GLN-GLN-ASP-PHE-VAL-ASN-TRP-LEU-LEU-ALA-GLN-LYS-GLY-LYS-LYS-ASN-ASP-TRP-LYS-HIS-ASN-ILE-THR-GLN]
- half-life (DPP-4): > 12 h
- Intactness on incubation with DPP-4 (purified porcine DPP-4): remained fully intact
- Insulin secretion from BRIN-BD11 cells (BRIN-BD11 cells; 10^−6 mol/l peptide, 20 min, vs 5.6 and 16.7 mmol/l glucose control): significantly (P<0.05 to P<0.001) stimulated insulin secretion
- Insulin release from BRIN-BD11 cells (BRIN-BD11 cells; 10^−8 M peptide, vs 5.6 and 16.7 mmol/l glucose controls respectively): significant (P<0.001 and P<0.01; respectively) increases in insulin release
- Overall AUC blood glucose, peptide 4 h prior to glucose load (lean control mice; [1]): significantly reduced
- Plasma insulin AUC, peptide 4 h prior to glucose load (lean control mice; [1]): increased plasma insulin AUC values (P<0.05)
- Blood glucose at 15 min post-injection (lean control mice; 25 nmol/kg with glucose 18 mmol/kg i.p.): significant (P<0.05) reduction in blood glucose levels
- Blood glucose at 30 min post injection (lean control mice; 25 nmol/kg with glucose 18 mmol/kg i.p., non-fasted mice, vs glucose alone): significantly (P<0.05) lowered blood glucose values
- Overall 0-105 min AUC blood glucose (lean control mice; 25 nmol/kg with glucose 18 mmol/kg i.p., vs glucose alone): significantly (P<0.05) decreased
- Pancreatic islet area and beta cell area (high fat fed mice; 21 days twice daily 25 nmol/kg): no significant effect
- Pancreatic alpha cell area (high fat fed mice; 21 days twice daily 25 nmol/kg, vs high fat controls): decreased (P<0.001)
- Number of islets per mm2 (high fat fed mice; 21 days, vs all other groups of mice): significantly (P<0.05 to P<0.01) augmented
